Data taken from US20110055943A1, “NOVEL THERAPEUTIC TARGETS IN INFLAMMATORY BOWEL DISEASE” (SALIX PHARMACEUTICALS, LTD., priority 2007, published 2011).

Columns and labels:
[1] = tested on: PXR target genes (CYP3A11, GSTA1, MRP2, OATP2); assay: qPCR analysis of PXR target genes in WT mice; format: in vivo, wild-type (WT) mice
[2] = target: T1, CAR (Mus musculus, UniProt O35627); assay: Cell-based reporter assay, transfected HCT116 cells, dual luciferase; settings: 10 μM, 24 h
T1 construct: expressed in transfected cells; host or cells: HCT116
T1 sequence (O35627 1-358): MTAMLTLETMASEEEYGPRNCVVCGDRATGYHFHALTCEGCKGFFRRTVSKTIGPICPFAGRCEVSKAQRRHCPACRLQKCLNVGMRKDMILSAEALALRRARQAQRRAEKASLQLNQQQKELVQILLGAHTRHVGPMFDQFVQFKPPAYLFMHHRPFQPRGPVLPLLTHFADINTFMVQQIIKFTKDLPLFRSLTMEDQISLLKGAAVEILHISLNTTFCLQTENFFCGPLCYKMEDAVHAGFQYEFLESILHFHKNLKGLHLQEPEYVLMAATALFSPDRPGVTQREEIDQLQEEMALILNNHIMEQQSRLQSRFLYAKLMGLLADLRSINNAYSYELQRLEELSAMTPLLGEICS
Description: (§1) A hepG2 cell line (DPX2) with stable expression of recombinant human PXR and a PXR-response element cloned in a luciferase vector was obtained from Puracyp Inc. (Carlsbad, Calif.). The construction and validation of the cell lines were reported previously (Yueh et al., 2005). The cells were seeded according to the distributor's instruction. […] The activation of PXR was determined by measuring the firefly luciferase activity 24 h later, followed by normalization of luciferase activity by protein concentrations. For cell-based reporter assay of nuclear receptors CAR, PPARα, PPARγ, and FXR, HCT116 cells were plated on 24-well plates (5×10^4 cells/well, cultured in DMEM containing 10% FBS), and transfected with the various expression vectors using Fugene transfection reagent (Roche, Indianapolis, Ind.). The mouse PPAR and CAR vectors were described in previous reports (Kliewer et al., 1992; Swales et al., 2005). The mouse FXR vector was provided by Dr Christopher J. Sinal. […] TCPOBOP (250 nM), Wy-14,643 (10 μM), rosiglitazone (10 μM), and GW4064 (25 μM) were used as positive controls respectively for mouse CAR, PPARα, PPARγ, and FXR. A standard dual luciferase assay was used and normalized to a cotransfected control reporter (Promega, Madison, Wis.). Each in vitro assay was repeated at least three times.

[3] = target: T2, FXR (Mus musculus, UniProt Q60641); assay: as above; settings: 10 μM, 24 h
T2 construct: expressed in transfected cells; host or cells: HCT116
T2 sequence (Q60641 1-488): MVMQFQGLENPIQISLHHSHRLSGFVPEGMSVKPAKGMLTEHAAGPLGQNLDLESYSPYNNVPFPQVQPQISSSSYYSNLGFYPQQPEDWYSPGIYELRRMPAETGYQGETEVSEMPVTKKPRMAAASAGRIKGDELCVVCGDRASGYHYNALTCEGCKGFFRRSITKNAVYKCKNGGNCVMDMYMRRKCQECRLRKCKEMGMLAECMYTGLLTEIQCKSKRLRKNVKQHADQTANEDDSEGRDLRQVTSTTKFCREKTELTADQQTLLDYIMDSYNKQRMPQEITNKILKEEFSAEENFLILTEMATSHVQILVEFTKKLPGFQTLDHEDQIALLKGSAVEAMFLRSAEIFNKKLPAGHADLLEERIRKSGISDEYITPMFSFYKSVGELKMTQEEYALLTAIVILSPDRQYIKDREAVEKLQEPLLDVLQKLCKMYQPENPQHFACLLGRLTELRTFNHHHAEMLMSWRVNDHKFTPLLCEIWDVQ
Description: as §1

[4] = target: T3, PPARα (Mus musculus, UniProt P23204); assay: as above; settings: 10 μM, 24 h
T3 construct: expressed in transfected cells; host or cells: HCT116
T3 sequence (P23204 1-468): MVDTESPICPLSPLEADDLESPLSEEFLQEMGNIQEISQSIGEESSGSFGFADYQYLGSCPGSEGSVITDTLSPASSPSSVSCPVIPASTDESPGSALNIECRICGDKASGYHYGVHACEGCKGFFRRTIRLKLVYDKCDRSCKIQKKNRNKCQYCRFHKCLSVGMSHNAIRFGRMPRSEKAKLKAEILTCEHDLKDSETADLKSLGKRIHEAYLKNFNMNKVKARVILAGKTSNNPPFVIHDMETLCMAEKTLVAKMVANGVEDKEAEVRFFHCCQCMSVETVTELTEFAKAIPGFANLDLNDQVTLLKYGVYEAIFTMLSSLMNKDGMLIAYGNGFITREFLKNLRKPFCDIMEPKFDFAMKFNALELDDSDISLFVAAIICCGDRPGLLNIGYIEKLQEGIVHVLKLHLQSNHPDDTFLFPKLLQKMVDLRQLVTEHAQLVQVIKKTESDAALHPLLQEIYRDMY
Description: as §1

[5] = tested on: CYP3A; assay: Pharmacokinetics of MDZ in hPXR mice pretreated with RIFax; settings: hPXR mice, RIFax 10 mg/kg/day 3 days, MDZ 2.5 mg/kg oral
Description: Blood samples were collected from suborbital veins using heparinized tubes at pre-dose, 5, 10, 20, 30, 60, and 90 min after administration of MDZ. Serum was separated by centrifugation at 8,000 g for 10 min. For MDZ and 1′-OH-MDZ extraction, 50 μl of serum was mixed with 150 μl of phosphate-buffered saline, 200 μl of ethyl acetate, and 200 μl of methyl t-butyl ether. The mixture was centrifuged at 3,000 rpm for 5 min at 4° C. The organic layer was then transferred to a new tube, dried with N2, and reconstituted in 100 μl of 70% aqueous methanol and 30% H2O containing 0.1% formic acid. […] Pharmacokinetic parameters for MDZ and 1′-OH-MDZ were estimated from the plasma concentration-time data by a non-compartmental approach using WinNonlin (Pharsight, Mountain View, Calif.). The area under the serum concentration-time curve (AUC0-90 min) was calculated by the trapezoidal rule. The maximum concentration in serum (Cmax) and its corresponding time (Tmax) were obtained from the original data.

[6] = tested on: CYP3A4; settings: two clinical studies; cited from earlier work
[7] = tested on: PXR target genes (CYP3A11, GSTA1, MRP2, OATP2); assay: qPCR analysis of PXR target genes in hPXR mice
Description: RIF, a specific human PXR ligand, was used as positive control at 25 mg/kg/day (p.o.) for 3 days. […] Liver and small intestine were collected and frozen at −80° C. for further analysis.
RNA was extracted from different tissues using TRIzol reagent (Invitrogen, Carlsbad, Calif.). qPCR was performed using cDNA generated from 1 μg total RNA with SuperScript II Reverse Transcriptase kit (Invitrogen). PCR reactions were carried out using SYBR green PCR master mix (SuperArray) in an ABI Prism 7900HT Sequence Detection System (Applied Biosystems, Foster City, Calif.). Values were quantified using the Comparative CT method, and samples normalized to β-actin.

[8] = WT mice, small intestine, 25 mg/kg/day p.o. 3 days
[9] = small intestine, 25 mg/kg/day p.o. 3 days

Intestinal CYP3A11 expression [1, 8]: inhibited | Intestinal GSTA1 mRNA increase [1, 8]: 87% | Intestinal OATP2 mRNA [1, 8]: no significant induction | intestinal MRP2 mRNA [1, 8]: significantly suppressed | effect on hepatic PXR target genes ([1]; wild-type mice, liver, oral treatment): no significant effect | change in luciferase activity in the presence of CAR [2]: no significant change | change in luciferase activity in the presence of FXR [3]: no significant change | change in luciferase activity in the presence of PPARα [4]: no significant change | Tmax of 1′-OH-MDZ in RIFax pretreated mice vs control group [5]: significantly shorter | CYP3A11, GSTA1, MRP2 and OATP2 mRNAs in small intestine ([7]; 25 mg/kg/day p.o. 3 days): all up-regulated | MRP2 in the gut ([7]; 25 mg/kg/day p.o. 3 days): only modestly induced | PXR target genes in the intestine ([7]; intestine, oral treatment): significant induction | GSTA1 in liver ([7]; liver, 25 mg/kg/day p.o. 3 days): increased | effect on hepatic PXR target genes ([7]; liver, oral treatment): no significant effect | Intestinal CYP3A11 increase compared to vehicle-treated mice [7, 9]: ~4 fold | Intestinal GSTA1 mRNA increase [7, 9]: 172% | Intestinal OATP2 mRNA increase [7, 9]: 3.4 fold | intestinal MRP2 mRNA [7, 9]: significant up-regulation
SMILES: COC1/C=C/OC2(C)Oc3c(C)c(O)c4c(O)c(c5c(nc6cc(C)ccn65)c4c3C2=O)NC(=O)/C(C)=C\C=C\C(C)C(O)C(C)C(O)C(C)C(OC(C)=O)C1C (centres unmarked) [RIFax, 4-Deoxy-4′-methylpyrido[1′,2′-1,2]imidazo[5,4-c]rifamycin SV]
effect on intestinal or hepatic CYP3A4 [6]: no significant effect | effect on the pharmacokinetics of MDZ and of ethinyl estradiol and norgestimate [6]: did not alter
